# Source: EPA's ToxRefDB 2
# Assays:
# rat [1] = conditions: Subchronic oral toxicity in rodents, wistar, Gavage/Intubation, dose end: 13 week, group: systemic
# dog [2] = conditions: Subchronic oral toxicity in nonrodent, beagle, Gavage/Intubation, dose end: 13 week, group: systemic
# rat [3] = conditions: Subchronic oral toxicity in rodents, wistar, Feed, dose end: 13 week, group: systemic, systemic / organ weight / spleen / absolute + systemic / organ weight / spleen / relative to body weight + systemic / pathology microscopic…
# dog [4] = conditions: Subchronic oral toxicity in nonrodent, beagle, Capsule, dose end: 13 week, group: systemic, systemic / clinical chemistry / albumin / albumin + systemic / clinical chemistry / protein / protein + systemic / in life observation / …
# rat [5] = conditions: Acute dermal toxicity, other, Topical, dose end: 28 day, group: systemic, systemic / pathology microscopic / thymus / necrosis
# mouse [6] = conditions: Carcinogenicity, cd1, Oral, Feed, dose end: 80 week, group: systemic
# rat [7] = conditions: Chronic toxicity, other, Oral, Feed, dose end: 102 week, group: systemic
# dog [8] = conditions: Chronic toxicity; beagle; Oral; Feed; dose end: 104 week; group: systemic; systemic / clinical chemistry / [other] / [other] + systemic / pathology microscopic / liver / pigmentation + systemic / pathology …
# rat [9] = conditions: Subchronic oral toxicity in rodents, sprague dawley, Gavage/Intubation, dose end: 13 week, group: systemic
# mouse [10] = conditions: Subchronic oral toxicity in rodents, cd1, Gavage/Intubation, dose end: 13 week, group: systemic
# rat [11] = conditions: Sub-acute repeat dose toxicity; sprague dawley; Oral; Gavage/Intubation; dose end: 6 week; group: systemic; systemic / organ weight / liver / absolute + systemic / organ weight / liver / relative to body weight + systemic / pathology microscopic / …
# primate = conditions: Subchronic oral toxicity in nonrodent, macaque, Gavage/Intubation, dose end: 7 week, group: systemic, systemic / clinical chemistry / alkaline phosphatase (alp/alk) / alkaline phosphatase (alp/alk) + systemic / organ weight / liver / absolute…
# rat [12] = conditions: Subchronic oral toxicity in rodents, sprague dawley, Feed, dose end: 13 week, group: systemic
# mouse [13] = conditions: Subchronic oral toxicity in rodents, cd1, Feed, dose end: 14 week, group: systemic
# dog [14] = conditions: Subchronic oral toxicity in nonrodent, beagle, Gavage/Intubation, dose end: 6 month, group: systemic
# rat [15] = conditions: Chronic toxicity; sprague dawley; Oral; Gavage/Intubation; dose end: 6 month; group: systemic; systemic / clinical chemistry / creatinine / creatinine
# dog [16] = conditions: Chronic toxicity, beagle, Oral, Gavage/Intubation, dose end: 52 week, group: systemic
# rat [17] = conditions: Carcinogenicity, fischer, Oral, Feed, dose end: 2 year, group: systemic, systemic / in life observation / clinical signs / urine
# mouse [18] = conditions: Multigenerational reproductive toxicity study, cd1, Oral, Feed, dose end: 2 generation
# mouse [19] = conditions: Subchronic oral toxicity in rodents, b6c3f1, Feed, dose end: 13 week, group: systemic
# rat [20] = conditions: Subchronic oral toxicity in rodents, fischer, Feed, dose end: 13 week, group: systemic
# mouse [21] = conditions: Carcinogenicity, b6c3f1, Oral, Feed, dose end: 2 year, group: systemic
# dog [22] = conditions: Subchronic oral toxicity in nonrodent, beagle, Feed, dose end: 13 week, group: systemic, systemic / in life observation / body weight / body weight + systemic / in life observation / body weight / body weight gain + systemic / …
# rat [23] = conditions: Subchronic oral toxicity in rodents, sprague dawley, Feed, dose end: 90 day, group: systemic, systemic / pathology microscopic / kidney / basophilia + systemic / pathology microscopic / kidney / dilatation + systemic / pathology …
# rat [24] = conditions: Prenatal developmental toxicity study, sprague dawley, Oral, Gavage/Intubation, dose end: 15 GD
# rat [25] = conditions: Combined chronic toxicity/carcinogenicity, sprague dawley, Oral, Feed, dose end: 2 year, group: systemic
# [26] = systemic / clinical chemistry / albumin / albumin + systemic / clinical chemistry / chloride / chloride + systemic / clinical chemistry / …
# [27] = systemic / clinical chemistry / albumin / albumin + systemic / clinical chemistry / protein / protein + systemic / in life observation / …
# [28] = systemic / clinical chemistry / alanine aminotransferase (alt/sgpt) / alanine aminotransferase (alt/sgpt) + systemic / in life observation…
# [29] = systemic / organ weight / adrenal gland / absolute
# [30] = systemic / pathology microscopic / stomach / ulcer + systemic / hematology / anemia / anemia - nos + systemic / hematology / hematocrit (hct…
# [31] = systemic / clinical chemistry / [other] / [other]
# [32] = systemic / clinical chemistry / [other] / [other] + systemic / pathology microscopic / intestine small / pigmentation + systemic / pathology…
# [33] = systemic / clinical chemistry / [other] / [other] + systemic / clinical chemistry / alanine aminotransferase (alt/sgpt) / alanine …
# [34] = systemic / hematology / mean corpuscular (cell) volume (mcv) / mean corpuscular (cell) volume (mcv) + systemic / hematology / mean …
# [35] = systemic / clinical chemistry / albumin / albumin + systemic / clinical chemistry / protein / protein + systemic / hematology / platelet / …
# [36] = systemic / pathology microscopic / adrenal gland / vacuolization + systemic / pathology microscopic / liver / eosinophilic focus + systemic…
# [37] = systemic / clinical chemistry / creatinine / creatinine
# [38] = systemic / clinical chemistry / creatinine / creatinine + systemic / hematology / reticulocyte / reticulocyte + systemic / organ weight / …
# [39] = systemic / clinical chemistry / creatinine / creatinine + systemic / hematology / hematocrit (hct) / hematocrit (hct) + systemic / …
# [40] = systemic / organ weight / adrenal gland / relative to body weight + systemic / organ weight / heart / absolute + systemic / clinical …
# [41] = systemic / organ weight / heart / absolute
# [42] = systemic / organ weight / heart / absolute + systemic / clinical chemistry / alkaline phosphatase (alp/alk) / alkaline phosphatase (alp/alk…
# [43] = discoloration + systemic / pathology microscopic / kidney / adenoma + systemic / …
# [44] = group: offspring, systemic / in life observation / body weight / offspring (pup) weight
# [45] = group: parental, systemic / in life observation / food consumption / food consumption
# [46] = group: reproductive, reproductive / offspring survival early / live fetuses / live fetuses + reproductive / reproductive performance / fertility / fertility
# [47] = systemic / in life observation / clinical signs / urine, discoloration
# [48] = systemic / in life observation / body weight / body weight + systemic / pathology microscopic / epididymis / atypia cellular + systemic / …
# [49] = systemic / in life observation / clinical signs / urine, discoloration + systemic / pathology microscopic / adrenal gland / hyperplasia + …
# [50] = group: developmental, developmental / developmental malformation / bone / incomplete ossification + developmental / developmental malformation / interparietal / …
# [51] = group: maternal, systemic / in life observation / food consumption / food consumption + systemic / pathology gross / kidney / enlarged
# [52] = systemic / pathology microscopic / kidney / dilatation + systemic / pathology microscopic / kidney / fibrosis + systemic / clinical …
smiles,measurement,setting,value
CCN(C(=O)c1cc(C)cc(OC[C@H](C)Nc2ccncc2)c1)C(C)C.Cc1ccc(S(=O)(=O)O)cc1,LOAEL,rat [1]; [26],> 40 mg/kg/day
same,NOAEL,rat [1]; [26],≥ 40 mg/kg/day
same,LEL,rat [1]; [27],12 mg/kg/day
same,NEL,rat [1]; [27],< 12 mg/kg/day
same,LOAEL,dog [2]; [28],> 20 mg/kg/day
same,NOAEL,dog [2]; [28],≥ 20 mg/kg/day
same,LEL,dog [2]; [29],4 mg/kg/day
same,NEL,dog [2]; [29],< 4 mg/kg/day
Oc1cccc2cccnc12.Oc1cccc2cccnc12.[Cu] [Copper-8-hydroxyquinoline (1:2)],LEL,rat [3],100 mg/kg/day
same,LOAEL,rat [3],100 mg/kg/day
same,NEL,rat [3],30 mg/kg/day
same,NOAEL,rat [3],30 mg/kg/day
same,LEL,dog [4],50 mg/kg/day
same,LOAEL,dog [4],50 mg/kg/day
same,NEL,dog [4],5 mg/kg/day
same,NOAEL,dog [4],5 mg/kg/day
same,LEL,rat [5],1000 mg/kg/day
same,LOAEL,rat [5],1000 mg/kg/day
same,NEL,rat [5],200 mg/kg/day
same,NOAEL,rat [5],200 mg/kg/day
same,LOAEL,mouse [6]; systemic / pathology microscopic / stomach / ulcer,208 mg/kg/day
same,NEL,mouse [6]; [30],57.1 mg/kg/day
same,NOAEL,mouse [6]; [30],57.1 mg/kg/day
same,LEL,mouse [6]; systemic / pathology microscopic / stomach / ulcer + systemic / pathology microscopic / spleen / hematopoietic cell proliferation,208 mg/kg/day
same,LEL,rat [7]; [31],0.25 mg/kg/day
same,NEL,rat [7]; [31],< 0.25 mg/kg/day
same,LOAEL,rat [7]; [32],100 mg/kg/day
same,NOAEL,rat [7]; [32],25 mg/kg/day
same,LEL,dog [8],25 mg/kg/day
same,LOAEL,dog [8],25 mg/kg/day
same,NEL,dog [8],5 mg/kg/day
same,NOAEL,dog [8],5 mg/kg/day
CCc1cc(SCc2sc(-c3ccc(C(F)(F)F)cc3)nc2CN2CCN(c3ccc(OC)cc3)CC2)ccc1OCC(=O)O,LOAEL,rat [9]; [33],> 1000 mg/kg/day
same,NOAEL,rat [9]; [33],≥ 1000 mg/kg/day
same,LEL,rat [9]; [34],30 mg/kg/day
same,NEL,rat [9]; [34],< 30 mg/kg/day
same,LOAEL,mouse [10]; [35],> 1000 mg/kg/day
same,NOAEL,mouse [10]; [35],≥ 1000 mg/kg/day
same,LEL,mouse [10]; [36],10 mg/kg/day
same,NEL,mouse [10]; [36],< 10 mg/kg/day
same,LEL,rat [11],5 mg/kg/day
same,LOAEL,rat [11],> 100 mg/kg/day
same,NEL,rat [11],< 5 mg/kg/day
same,NOAEL,rat [11],≥ 100 mg/kg/day
same,LEL,primate,5 mg/kg/day
same,LOAEL,primate,> 100 mg/kg/day
same,NEL,primate,< 5 mg/kg/day
same,NOAEL,primate,≥ 100 mg/kg/day
CC(=O)c1ccc2c(c1)[C@H](NC(=O)c1ccc(F)cc1)[C@@H](O)C(C)(C)O2 [Carabersat],LEL,rat [12]; [37],20 mg/kg/day
same,NEL,rat [12]; [37],< 20 mg/kg/day
same,LOAEL,rat [12]; [38],> 2000 mg/kg/day
same,NOAEL,rat [12]; [38],≥ 2000 mg/kg/day
same,LEL,mouse [13]; [37],200 mg/kg/day
same,LOAEL,mouse [13]; [39],> 2000 mg/kg/day
same,NEL,mouse [13]; [39],20 mg/kg/day
same,NOAEL,mouse [13]; [39],≥ 2000 mg/kg/day
same,LEL,dog [14]; systemic / organ weight / adrenal gland / relative to body weight + systemic / clinical chemistry / alkaline phosphatase (alp/alk) / …,200 mg/kg/day
same,NEL,dog [14]; systemic / organ weight / adrenal gland / relative to body weight + systemic / organ weight / heart / absolute,20 mg/kg/day
same,LOAEL,dog [14]; [40],> 1000 mg/kg/day
same,NOAEL,dog [14]; [40],≥ 1000 mg/kg/day
same,LEL,rat [15],200 mg/kg/day
same,LOAEL,rat [15],> 2000 mg/kg/day
same,NEL,rat [15],20 mg/kg/day
same,NOAEL,rat [15],≥ 2000 mg/kg/day
same,LEL,dog [16]; [41],20 mg/kg/day
same,NEL,dog [16]; [41],< 20 mg/kg/day
same,LOAEL,dog [16]; [42],> 1000 mg/kg/day
same,NOAEL,dog [16]; [42],≥ 1000 mg/kg/day
O=C1CN(/N=C/c2ccc([N+](=O)[O-])o2)C(=O)N1 [Nitrofurantoin],LEL,rat [17]; discoloration,30 mg/kg/day
same,NEL,rat [17]; discoloration,< 30 mg/kg/day
same,LOAEL,rat [17]; [43],> 60 mg/kg/day
same,NOAEL,rat [17]; [43],≥ 60 mg/kg/day
same,LEL,mouse [18]; [44],99.2 mg/kg/day
same,LOAEL,mouse [18]; [44],> 213 mg/kg/day
same,NEL,mouse [18]; [44],43.8 mg/kg/day
same,NOAEL,mouse [18]; [44],≥ 213 mg/kg/day
same,LEL,mouse [18]; [45],164 mg/kg/day
same,LOAEL,mouse [18]; [45],> 164 mg/kg/day
same,NEL,mouse [18]; [45],88.7 mg/kg/day
same,NOAEL,mouse [18]; [45],≥ 164 mg/kg/day
same,LEL,mouse [18]; [46],213 mg/kg/day
same,LOAEL,mouse [18]; [46],> 213 mg/kg/day
same,NEL,mouse [18]; [46],99.2 mg/kg/day
same,NOAEL,mouse [18]; [46],≥ 213 mg/kg/day
same,NOAEL,mouse [19]; systemic / in life observation / body weight / body weight + systemic / pathology microscopic / ovary / necrosis + systemic / in life …,375 mg/kg/day
same,LOAEL,mouse [19]; systemic / in life observation / body weight / body weight + systemic / pathology microscopic / ovary / necrosis + systemic / pathology …,750 mg/kg/day
same,LEL,mouse [19]; systemic / pathology microscopic / testes / aspermatogenesis + systemic / pathology microscopic / testes / degeneration,195 mg/kg/day
same,NEL,mouse [19]; systemic / pathology microscopic / testes / aspermatogenesis + systemic / pathology microscopic / testes / degeneration + systemic / in life…,90 mg/kg/day
same,NOAEL,"rat [20]; systemic / in life observation / body weight / body weight + systemic / in life observation / clinical signs / urine, discoloration + …",65 mg/kg/day
same,LOAEL,rat [20]; systemic / in life observation / body weight / body weight + systemic / pathology microscopic / testes / degeneration,125 mg/kg/day
same,LEL,rat [20]; [47],30 mg/kg/day
same,NEL,rat [20]; [47],< 30 mg/kg/day
same,LOAEL,mouse [21]; [48],570 mg/kg/day
same,NOAEL,mouse [21]; [48],300 mg/kg/day
same,LEL,mouse [21]; [49],280 mg/kg/day
same,NEL,mouse [21]; [49],< 280 mg/kg/day
CCNc1nc(NC(C)C)[nH]c(=O)n1 [2-Hydroxyatrazine],LEL,dog [22],59.6 mg/kg/day
same,LOAEL,dog [22],59.6 mg/kg/day
same,NEL,dog [22],5.8 mg/kg/day
same,NOAEL,dog [22],5.8 mg/kg/day
same,LEL,rat [23],18.9 mg/kg/day
same,LOAEL,rat [23],18.9 mg/kg/day
same,NEL,rat [23],6.3 mg/kg/day
same,NOAEL,rat [23],6.3 mg/kg/day
same,LEL,rat [24]; [50],125 mg/kg/day
same,LOAEL,rat [24]; [50],125 mg/kg/day
same,NEL,rat [24]; [50],25 mg/kg/day
same,NOAEL,rat [24]; [50],25 mg/kg/day
same,LOAEL,"rat [24]; group: maternal, systemic / in life observation / food consumption / food consumption",125 mg/kg/day
same,LEL,rat [24]; [51],125 mg/kg/day
same,NEL,rat [24]; [51],25 mg/kg/day
same,NOAEL,rat [24]; [51],25 mg/kg/day
same,LOAEL,rat [25]; systemic / pathology microscopic / kidney / dilatation + systemic / pathology microscopic / kidney / fibrosis,7.75 mg/kg/day
same,NEL,rat [25]; [52],0.962 mg/kg/day
same,NOAEL,rat [25]; [52],0.962 mg/kg/day
same,LEL,rat [25]; systemic / pathology microscopic / kidney / dilatation + systemic / pathology microscopic / kidney / fibrosis + systemic / pathology gross…,7.75 mg/kg/day
